What was measured:
Test in all cases: relative viability (nuclei count vs DMSO), 5 days (fraction); higher = more cells survive
Axitinib + Bortezomib = compound: CNC(=O)c1ccccc1Sc1ccc2c(/C=C/c3ccccn3)n[nH]c2c1 [Axitinib] + CC(C)C[C@H](NC(=O)[C@H](Cc1ccccc1)NC(=O)c1cnccn1)B(O)O [Bortezomib] (partner 0.002 µM)
How it was run: (§1)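 The day after seeding in 1536-well plates, lung cancer cell lines were treated by pin tool with a single drug, or with a fixed anchor-drug dose together with five library-drug doses (not always all listed) in √10 steps. After 5 days, a combined fix-and-stain solution (final 0.05% Triton X-100, 1% formaldehyde, 1 ug/ml Hoechst) was added. Nuclei counted on 4× images gave relative viability as treated counts over vehicle counts, reported as the median of duplicate plates.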

[1] = compound: CC1=CC=C(C=C1)C(=O)CN2C3=C(CCCC3)SC2=N [Pifithrin_alpha] + CS(=O)(=O)CCNCc1ccc(-c2ccc3ncnc(Nc4ccc(OCc5cccc(F)c5)c(Cl)c4)c3c2)o1 [Lapatinib] (partner 2 µM)
How it was run: as §1

[2] = compound: CC1=CC=C(C=C1)C(=O)CN2C3=C(CCCC3)SC2=N [Pifithrin_alpha] + CC1(C)CCC(c2ccc(Cl)cc2)=C(CN2CCN(c3ccc(C(=O)NS(=O)(=O)c4ccc(N[C@H](CCN5CCOCC5)CSc5ccccc5)c(S(=O)(=O)C(F)(F)F)c4)cc3)CC2)C1 [Navitoclax] (partner 0.5 µM)
How it was run: as §1

Axitinib + Linsitinib = compound: CNC(=O)c1ccccc1Sc1ccc2c(/C=C/c3ccccn3)n[nH]c2c1 [Axitinib] + C[C@]1(O)C[C@@H](c2nc(-c3ccc4ccc(-c5ccccc5)nc4c3)c3c(N)nccn32)C1 [Linsitinib] (partner 1 µM)
How it was run: as §1

| Cell Line | relative viability (Axitinib + Bortezomib; first compound 0.005 µM) | relative viability (Axitinib + Bortezomib; first compound 0.01581 µM) | relative viability (Axitinib + Bortezomib; first compound 0.05 µM) | relative viability (Axitinib + Bortezomib; first compound 0.1581 µM) | relative viability (Axitinib + Bortezomib; first compound 0.5 µM) | relative viability ([1]; first compound 1 µM) | relative viability ([1]; first compound 3.162 µM) | relative viability ([1]; first compound 10 µM) | relative viability ([1]; first compound 100 µM) | relative viability ([2]; first compound 1 µM) | relative viability ([2]; first compound 3.162 µM) | relative viability ([2]; first compound 10 µM) | relative viability ([2]; first compound 100 µM) | relative viability (Axitinib + Linsitinib; first compound 0.005 µM) | relative viability (Axitinib + Linsitinib; first compound 0.01581 µM) | relative viability (Axitinib + Linsitinib; first compound 0.05 µM) | relative viability (Axitinib + Linsitinib; first compound 0.1581 µM) | relative viability (Axitinib + Linsitinib; first compound 0.5 µM) | relative viability ([1]; first compound 31.62 µM) | relative viability ([2]; first compound 31.62 µM) |
| --- | --- | --- | --- | --- | --- | --- | --- | --- | --- | --- | --- | --- | --- | --- | --- | --- | --- | --- | --- | --- |
| NCI-H460 | 1.09 | 1.07 | 0.975 | 0.96 | 1.37 | 1.2 | 1.21 | 1.1 | 0.533 | 1.41 | 0.989 | 0.989 | 0.933 | 0.94 | 0.875 | 0.861 | 0.716 | 0.854 |  |  |
| NCI-H2085 | 1.15 | 0.966 | 1.06 | 1.04 | 1.05 | 0.626 | 0.69 | 0.691 | 0.661 | 1.06 | 1.22 | 1.08 | 1.04 | 1.02 | 1 | 0.845 | 0.794 | 1 | 0.667 | 0.876 |
| NCI-H1703 | 0.353 | 0.228 | 0.161 | 0.212 | 0.207 | 1.07 | 1.03 | 1.04 | 1.32 | 1.34 | 0.99 | 1.1 | 1.12 | 0.888 | 0.461 | 0.12 | 0.148 | 0.164 | 0.863 | 0.674 |
| HCC-366 | 0.977 | 0.994 | 1.11 | 1 | 1.13 | 0.861 | 1.24 | 1.1 | 1.06 | 1.12 | 1.11 | 0.886 | 0.925 | 0.673 | 0.615 | 0.776 | 0.662 | 0.842 |  |  |
| NCI-H322M | 1.34 | 1.07 | 1.12 | 1.2 | 1.12 | 0.578 | 0.621 | 0.557 | 0.613 | 1.17 | 1.35 | 1.27 | 1.33 | 0.932 | 0.897 | 0.892 | 0.889 | 0.827 | 0.635 | 1.22 |
| 201T | 1.14 | 1.08 | 1.06 | 1.07 | 1.11 | 0.959 | 0.728 | 0.744 | 0.689 | 1.18 | 1.19 | 1.15 | 1.05 | 1.08 | 1 | 1.02 | 0.965 | 0.966 | 0.83 | 1.04 |
| SK-LU-1 | 1.29 | 1.2 | 1.43 | 1.08 | 1.08 | 0.937 | 0.911 | 0.948 | 0.935 | 1.07 | 1.07 | 1.07 | 0.823 | 1.25 | 1.28 | 1.18 | 1.17 | 1.36 | 0.599 | 0.626 |

Reference: the supplement of paper PMC10307832
